Assay results taken from US20080031935A1, “Cholinesterase Inhibitors In Liposomes And Their Production And Use” (priority 2004, published 2008).

Experiment: Solubility of galantamine base in ethanol
Format: physicochemical

## COc1ccc2c3c1O[C@H]1C[C@@H](O)C=C[C@@]31CCN(C)C2 [galantamine base, galantamine]
  solubility in ethanol: soluble
